Results reported in the supplement of paper PMC9663587.

Tests used:
THZ531 = compound: CN(C)C/C=C/C(=O)Nc1ccc(C(=O)N2CCC[C@@H](Nc3ncc(Cl)c(-c4c[nH]c5ccccc45)n3)C2)cc1 [THZ531]
BVD523 = compound: CC(C)Nc1cc(-c2c[nH]c(C(=O)N[C@H](CO)c3cccc(Cl)c3)c2)c(Cl)cn1 [BVD523]
Doxorubicin = compound: COc1cccc2c1C(=O)c1c(O)c3c(c(O)c1C2=O)C[C@@](O)(C(=O)CO)C[C@@H]3O[C@H]1C[C@H](N)[C@H](O)[C@H](C)O1 [Doxorubicin]
Ceritinib/LDK378 = compound: Cc1cc(Nc2ncc(Cl)c(Nc3ccccc3S(=O)(=O)C(C)C)n2)c(OC(C)C)cc1C1CCNCC1 [Ceritinib/LDK378]
[1] = compound: CCc1cnn2c(NCc3ccc[n+]([O-])c3)cc(N3CCCC[C@H]3CCO)nc12
Pictilisib/GDC0941 = compound: CS(=O)(=O)N1CCN(Cc2cc3nc(-c4cccc5[nH]ncc45)nc(N4CCOCC4)c3s2)CC1 [Pictilisib/GDC0941]
THZ1 = compound: CN(C)C/C=C/C(=O)Nc1ccc(C(=O)Nc2cccc(Nc3ncc(Cl)c(-c4c[nH]c5ccccc45)n3)c2)cc1 [THZ1]
Paclitaxel = compound: CC(=O)O[C@H]1C(=O)[C@@]2(C)[C@H]([C@H](OC(=O)c3ccccc3)[C@]3(O)C[C@H](OC(=O)[C@H](O)[C@@H](NC(=O)c4ccccc4)c4ccccc4)C(C)=C1C3(C)C)[C@]1(OC(C)=O)CO[C@@H]1C[C@@H]2O [Paclitaxel]
Cediranib/AZD2171 = compound: COc1cc2c(Oc3ccc4[nH]c(C)cc4c3F)ncnc2cc1OCCCN1CCCC1 [Cediranib/AZD2171]
INK128/MLN0128 = compound: CC(C)n1nc(-c2ccc3oc(N)nc3c2)c2c(N)ncnc21 [INK128/MLN0128]
[2] = compound: CNc1nc(-c2ccc3c(N)n[nH]c3c2)cc(N2C[C@@H](C(=O)NC3CCCCC3)CC[C@H]2C)n1
Neratinib/HKI272 = compound: CCOc1cc2ncc(C#N)c(Nc3ccc(OCc4ccccn4)c(Cl)c3)c2cc1NC(=O)/C=C/CN(C)C [Neratinib/HKI272]
LEE011/Ribociclib = compound: CN(C)C(=O)c1cc2cnc(Nc3ccc(N4CCNCC4)cn3)nc2n1C1CCCC1 [LEE011/Ribociclib]
[3] = compound: Cc1nn(C)c(COc2ccc(N3CCN(S(=O)(=O)N(C)C)CC3)cc2)c1-c1cccc2c(CCCOc3cccc4ccccc34)c(C(=O)O)n(CCN3CCOCC3)c12
Luminespib/NVP-AUY922 = compound: CCNC(=O)c1noc(-c2cc(C(C)C)c(O)cc2O)c1-c1ccc(CN2CCOCC2)cc1 [Luminespib/NVP-AUY922]
TGX221 = compound: CC1=CN2C(=O)C=C(N=C2C(=C1)C(C)NC3=CC=CC=C3)N4CCOCC4 [TGX221]
[4] = compound: CC(=O)c1c(C)c2cnc(Nc3ccc(N4CCNCC4)cn3)nc2n(C2CCCC2)c1=O
Cabozantinib = compound: COc1cc2nccc(Oc3ccc(NC(=O)C4(C(=O)Nc5ccc(F)cc5)CC4)cc3)c2cc1OC [Cabozantinib]
Dasatinib = compound: Cc1nc(Nc2ncc(C(=O)Nc3c(C)cccc3Cl)s2)cc(N2CCN(CCO)CC2)n1 [Dasatinib]
Volasertib/BI6727 = compound: CC[C@@H]1C(=O)N(C)c2cnc(Nc3ccc(C(=O)N[C@H]4CC[C@H](N5CCN(CC6CC6)CC5)CC4)cc3OC)nc2N1C(C)C [Volasertib/BI6727]
R0-3306 = compound: C1=CC2=C(C=CC(=C2)C=C3C(=O)NC(=NCC4=CC=CS4)S3)N=C1 [R0-3306]
senexin b = compound: CN1CCN(C(=O)c2ccc3cc(CCNc4ncnc5ccc(C#N)cc45)ccc3c2)CC1 [senexin b]
AZD1775 = compound: C=CCn1c(=O)c2cnc(Nc3ccc(N4CCN(C)CC4)cc3)nc2n1-c1cccc(C(C)(C)O)n1 [AZD1775]
AZD5363 = compound: NC1(C(=O)N[C@@H](CCO)c2ccc(Cl)cc2)CCN(c2nc[nH]c3nccc2-3)CC1 [AZD5363]
Torin2 = compound: C1=CC(=CC(=C1)N2C(=O)C=CC3=CN=C4C=CC(=CC4=C32)C5=CN=C(C=C5)N)C(F)(F)F [Torin2]
BSJ-03-123 = compound: CC(=O)c1c(C)c2cnc(Nc3ccc(N4CCN(CCOCCOCCOCCNC(=O)COc5cccc6c5C(=O)N(C5CCC(=O)NC5=O)C6=O)CC4)cn3)nc2n(C2CCCC2)c1=O [BSJ-03-123]
Buparlisib/NVP-BKM120 = compound: Nc1cc(C(F)(F)F)c(-c2cc(N3CCOCC3)nc(N3CCOCC3)n2)cn1 [Buparlisib/NVP-BKM120]
Olaparib/AZD2281 = compound: O=C(c1cc(Cc2n[nH]c(=O)c3ccccc23)ccc1F)N1CCN(C(=O)C2CC2)CC1 [Olaparib/AZD2281]
SHP099 = compound: CC1(CCN(CC1)C2=CN=C(C(=N2)N)C3=C(C(=CC=C3)Cl)Cl)N [SHP099]
Alpelisib/BYL719 = compound: Cc1nc(NC(=O)N2CCC[C@H]2C(N)=O)sc1-c1ccnc(C(C)(C)C(F)(F)F)c1 [Alpelisib/BYL719]
Rucaparib = compound: CNCc1ccc(-c2[nH]c3cc(F)cc4c3c2CCNC4=O)cc1 [Rucaparib]
[5] = compound: CCCCOc1c(C(=O)c2c(F)cc(C)cc2F)c[nH]c2nncc1-2
THZ-P1-2 = compound: CN(C)C/C=C/C(=O)NC1=CC=C(C=C1)C(=O)NC2=CC=CC(=C2)NC3=NC=NC(=C3)C4=CNC5=CC=CC=C54 [THZ-P1-2]
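Further: breast cancer and non-malignant breast epithelial cell lines, Deep Dye Drop or Dye Drop imaging, nine half-log doses, GR normalized to time-zero plates and DMSO-only controls.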

Row | Cell Line | GR50, 72 h (THZ531) [µM] | GR50, 72 h (BVD523) [µM] | GR50, 72 h (Doxorubicin) [µM] | GR50, 72 h (Ceritinib/LDK378) [µM] | GR50, 72 h [1] [µM] | GR50, 72 h (Pictilisib/GDC0941) [µM] | GR50, 72 h (THZ1) [µM] | GR50, 72 h (Paclitaxel) [µM] | GR50, 72 h (Cediranib/AZD2171) [µM] | GR50, 72 h (INK128/MLN0128) [µM] | GR50, 72 h [2] [µM] | GR50, 72 h (Neratinib/HKI272) [µM] | GR50, 72 h (LEE011/Ribociclib) [µM] | GR50, 72 h [3] [µM] | GR50, 72 h (Luminespib/NVP-AUY922) [µM] | GR50, 72 h (TGX221) [µM] | GR50, 72 h [4] [µM] | GR50, 72 h (Cabozantinib) [µM] | GR50, 72 h (Dasatinib) [µM] | GR50, 72 h (Volasertib/BI6727) [µM] | GR50, 72 h (R0-3306) [µM] | GR50, 72 h (senexin b) [µM] | GR50, 72 h (AZD1775) [µM] | GR50, 72 h (AZD5363) [µM] | GR50, 72 h (Torin2) [µM] | GR50, 72 h (BSJ-03-123) [µM] | GR50, 72 h (Buparlisib/NVP-BKM120) [µM] | GR50, 72 h (Olaparib/AZD2281) [µM] | GR50, 72 h (SHP099) [µM] | GR50, 72 h (Alpelisib/BYL719) [µM] | GR50, 72 h (Rucaparib) [µM] | GR50, 72 h [5] [µM] | GR50, 72 h (THZ-P1-2) [µM]
1 | MDAMB361 | 0.0273 | 0.476 | 0.0123 | 0.266 | 0.0118 | 0.0792 | 0.00852 | 0.00311 | 2.22 | 0.00362 | 0.0407 | 0.152 | < 0.001 | > 10 | 0.00714 | > 10 | 0.0196 | > 10 | 0.268 | 0.00352 | 5.8 | 1.62 | 0.00493 | 0.654 | 0.00507 | 0.297 | 0.218 | 4.83 | > 10 | 0.223 |  |  | 
2 | HCC1500 |  |  | 0.0163 | 1.41 | 0.0138 | 2.26 |  | 0.00382 | 3.86 | 0.000784 |  | 0.785 |  | > 10 | 0.00847 | > 10 | > 3.16 | 4.67 | 0.00348 | 0.0116 |  |  |  |  | 0.00186 |  | 0.211 | 6.33 |  | > 10 |  |  | 
3 | MDAMB453 | 0.0236 | 7.79 | 0.00587 | 0.37 | 0.0114 | 0.455 | 0.0116 | 0.00247 | 2.79 | 0.00996 | 2.12 | 0.0361 | 0.0388 | > 10 | 0.0033 | > 10 | 0.0428 | 9.71 | > 10 | 0.00726 | 5.95 | 3.93 | 0.112 | 1.55 | 0.0086 | 1.8 | 0.694 | 1.67 | > 10 | 0.538 | 6.58 | 0.811 | 
4 | HCC1428 |  |  | 0.00474 | 1.24 | 0.0171 | 5.87 |  | 0.00862 | 3.17 | 0.00593 |  | 1.43 |  | > 10 | 0.00286 | > 10 | 0.073 | > 10 | > 10 | 0.0187 |  |  |  |  | 0.0128 |  | 0.692 | 0.553 |  | > 10 |  |  | 
5 | MDAMB175VII | 0.0409 | 0.255 | 0.00311 | 2.56 | 0.0118 | 0.345 | 0.0271 | 0.00295 | 4.54 | 0.00349 | 0.0785 | 0.00127 |  | > 10 | 0.00398 | > 10 | 0.00212 | 7.74 | 0.0162 | 0.0114 |  | 0.387 | 0.0486 | 0.0495 | 0.0022 | 0.301 | 0.102 | 9.32 | 2.47 | 0.154 | > 10 | 0.00153 | 3.1
6 | MDAMB330 | 0.0247 | 7.45 | 0.00368 | 1.13 | 0.0203 | 0.293 | 0.00836 | 0.00423 | 4.86 | 0.00601 | 0.279 | 0.00221 | < 0.001 | > 10 | 0.00239 | > 10 | 0.0198 | > 10 | > 10 | 0.0032 | 7.54 |  | 0.0535 | 0.198 | 0.00492 | 0.297 | 0.511 | 9.31 |  | 1.2 | 8.69 | 0.762 | 
7 | UACC893 | 0.0414 | 0.868 | 0.0106 | > 10 | 0.017 | 0.682 | 0.0175 | 0.00216 | 6.59 | 0.00694 | 4.83 | 0.00274 | 0.0051 | > 10 | 0.00468 | > 10 | 0.0209 | > 10 | > 10 | 0.00357 | 9.24 | > 10 | 0.236 | 0.0291 | 0.00854 | 1.46 | 0.271 | > 10 | > 10 | 0.419 | > 10 | 0.0897 | 
8 | SUM1315 | 0.388 | 6 | 0.0182 | 0.669 | 0.0109 | 0.511 | 0.251 | 0.00246 | 1.47 | 0.00659 | 3.85 | 0.0922 | 2.83 | > 10 | 0.00486 | > 10 | 0.0923 | 4.52 | 0.0191 | 0.0095 | 2.79 | > 10 | < 0.001 | > 10 | 0.015 | 2.05 | 0.402 | 2.03 | > 10 | 6.46 |  | 0.00376 | 7.11
